# Results as given in ChEMBL document CHEMBL4007454 (J Med Chem, 2017).
# What was measured:
# Cytochrome P450 2C9 = Cytochrome P450 2C9 (Homo sapiens, UniProt P11712); experiment: Inhibition of human CYP2C9; type: ADME
# [1] = Intrinsic clearance in human hepatocytes assessed per million cells at 1 uM after 180 mins by LC-MS/MS analysis; type: ADME, cell-based, Hepatocyte; conditions: read-out: CLH
# [2] = Tmax in Han-Wistar rat at 10 mg/kg, po measured after 15 to 480 mins by LC-MS/MS analysis; type: ADME, organism-based; conditions: in vivo
# [3] = AUC (0 to 8 hrs) in Han-Wistar rat at 2 mg/kg, iv measured after 2 to 480 mins by LC-MS/MS analysis; type: ADME, organism-based; parameters: time < 8 hr, dose 2 mg/kg, route intravenous; conditions: in vivo
# [4] = Half life in Han-Wistar rat at 2 mg/kg, iv measured after 2 to 480 mins by LC-MS/MS analysis; type: ADME, organism-based; conditions: in vivo
# [5] = Fraction unbound in rat plasma at 10 uM after 4 hrs by rapid equilibrium dialysis method; type: ADME, cell-free
# [6] = Equilibrium solubility in fasted state simulated intestinal fluid after 24 hrs by HPLC method; type: physicochemical
# [7] = Equilibrium solubility in simulated gastric fluid after 24 hrs by HPLC method; type: physicochemical
# Cytochrome P450 3A4 [8] = target: T1, Cytochrome P450 3A4 (Homo sapiens, UniProt P08684); experiment: Inhibition of human CYP3A4; type: ADME
# T1 sequence (P08684 whole entry): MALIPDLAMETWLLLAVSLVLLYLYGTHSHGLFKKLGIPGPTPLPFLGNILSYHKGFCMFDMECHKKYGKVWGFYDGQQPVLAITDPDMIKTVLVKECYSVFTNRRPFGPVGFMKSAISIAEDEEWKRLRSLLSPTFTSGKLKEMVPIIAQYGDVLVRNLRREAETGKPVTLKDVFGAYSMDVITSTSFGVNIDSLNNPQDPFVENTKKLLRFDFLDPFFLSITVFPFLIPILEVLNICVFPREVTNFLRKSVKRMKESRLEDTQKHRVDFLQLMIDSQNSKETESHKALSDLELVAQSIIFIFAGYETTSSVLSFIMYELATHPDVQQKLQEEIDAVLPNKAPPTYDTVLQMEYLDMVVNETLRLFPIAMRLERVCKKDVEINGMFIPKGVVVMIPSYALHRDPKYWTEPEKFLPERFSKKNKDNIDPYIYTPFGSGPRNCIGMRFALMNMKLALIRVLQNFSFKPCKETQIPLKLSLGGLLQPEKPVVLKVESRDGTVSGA
# Mus musculus [9] = experiment: In vivo inhibition of LRRK2 Ser935 phosphorylation in mouse brain assessed as unbound brain concentration causing reduction in ratio of phosphorylated Ser935 to total LRRK2 protein at 1 to 100 mg/kg, po administered 1 hr post treatment by Western blot analysis; type: functional, organism-based
# [10] = Equilibrium solubility in fed state simulated intestinal fluid after 24 hrs by HPLC method; type: physicochemical
# [11] = Cmax in Han-Wistar rat at 10 mg/kg, po measured after 15 to 480 mins by LC-MS/MS analysis; type: ADME, organism-based; conditions: in vivo, read-out: C0
# [12] = AUC (0 to 8 hrs) in Han-Wistar rat at 10 mg/kg, po measured after 15 to 480 mins by LC-MS/MS analysis; type: ADME, organism-based; parameters: dose 10 mg/kg, time < 8 hr, route oral; conditions: in vivo
# Rattus norvegicus [13] = experiment: In vivo inhibition of LRRK2 Ser935 phosphorylation in CD rat brain cortex assessed as unbound plasma concentration causing reduction in ratio of phosphorylated Ser935 to total LRRK2 protein at 1 to 100 mg/kg, po administered 1 hr post treatment by Western blot analysis; type: functional
# [14] = Clearance in Han-Wistar rat at 2 mg/kg, iv measured after 2 to 480 mins by LC-MS/MS analysis; type: ADME, organism-based; conditions: in vivo
# [15] = MRT in Han-Wistar rat at 10 mg/kg, po measured after 15 to 480 mins by LC-MS/MS analysis; type: ADME, organism-based; conditions: in vivo
# Mus musculus [16] = experiment: In vivo inhibition of LRRK2 Ser935 phosphorylation in mouse brain cortex assessed as reduction in ratio of phosphorylated Ser935 to total LRRK2 protein at =>10 mg/kg, po administered 1 hr prior to euthanasia measured by Western blot analysis; type: functional
# [17] = Intrinsic clearance in rat hepatocytes assessed per million cells at 1 uM after 180 mins by LC-MS/MS analysis; type: ADME, cell-based, Hepatocyte; conditions: read-out: CLH
# [18] = Equilibrium solubility in pH 6.5 Phosphate buffer after 24 hrs by HPLC method; type: physicochemical
# Cytochrome P450 3A4 [19] = target: T1, Cytochrome P450 3A4; experiment: Time dependent inhibition of human CYP3A4; type: ADME
# Mus musculus [20] = experiment: In vivo inhibition of LRRK2 Ser935 phosphorylation in mouse brain assessed as unbound plasma concentration causing reduction in ratio of phosphorylated Ser935 to total LRRK2 protein at 1 to 100 mg/kg, po administered 1 hr post treatment by Western blot analysis; type: functional, organism-based
# [21] = Oral bioavailability in Han-Wistar rat at 10 mg/kg, measured after 15 to 480 mins by LC-MS/MS analysis; type: ADME, organism-based; conditions: in vivo
# [22] = Initial concentration in Han-Wistar rat at 2 mg/kg, iv measured after 2 to 480 mins by LC-MS/MS analysis; type: ADME, organism-based; conditions: in vivo
# [23] = Equilibrium solubility in pH 5 acetate buffer after 24 hrs by HPLC method; type: physicochemical
# Rattus norvegicus [24] = experiment: In vivo inhibition of LRRK2 Ser935 phosphorylation in CD rat brain cortex assessed as reduction in ratio of phosphorylated Ser935 to total LRRK2 protein at => 30 mg/kg, po administered 1 hr post treatment by Western blot analysis; type: functional
# [25] = Equilibrium solubility in Water after 24 hrs by HPLC method; type: physicochemical
# Cytochrome P450 2D6 = Cytochrome P450 2D6 (Homo sapiens, UniProt P10635); experiment: Inhibition of human CYP2D6; type: ADME
# Sequence of Cytochrome P450 2D6 (P10635 whole entry): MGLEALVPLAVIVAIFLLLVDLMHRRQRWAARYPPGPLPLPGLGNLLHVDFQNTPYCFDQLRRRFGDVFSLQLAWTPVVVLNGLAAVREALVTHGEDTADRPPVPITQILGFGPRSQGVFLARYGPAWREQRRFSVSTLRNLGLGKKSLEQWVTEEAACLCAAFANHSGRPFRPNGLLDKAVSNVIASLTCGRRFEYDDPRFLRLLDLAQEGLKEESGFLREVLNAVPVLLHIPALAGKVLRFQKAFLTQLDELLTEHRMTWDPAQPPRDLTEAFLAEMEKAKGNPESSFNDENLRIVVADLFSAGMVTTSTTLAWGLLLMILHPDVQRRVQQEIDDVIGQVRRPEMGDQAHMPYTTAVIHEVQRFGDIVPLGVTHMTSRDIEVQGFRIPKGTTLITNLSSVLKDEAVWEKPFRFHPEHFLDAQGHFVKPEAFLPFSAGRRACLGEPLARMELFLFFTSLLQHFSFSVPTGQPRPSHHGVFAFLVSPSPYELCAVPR
# [26] = MRT in Han-Wistar rat at 2 mg/kg, iv measured after 2 to 480 mins by LC-MS/MS analysis; type: ADME, organism-based; conditions: in vivo
# Rattus norvegicus [27] = experiment: In vivo inhibition of LRRK2 Ser935 phosphorylation in CD rat brain cortex assessed as unbound brain concentration causing reduction in ratio of phosphorylated Ser935 to total LRRK2 protein at 1 to 100 mg/kg, po administered 1 hr post treatment by Western blot analysis; type: functional
# Sequence of Cytochrome P450 2C9 (P11712 whole entry): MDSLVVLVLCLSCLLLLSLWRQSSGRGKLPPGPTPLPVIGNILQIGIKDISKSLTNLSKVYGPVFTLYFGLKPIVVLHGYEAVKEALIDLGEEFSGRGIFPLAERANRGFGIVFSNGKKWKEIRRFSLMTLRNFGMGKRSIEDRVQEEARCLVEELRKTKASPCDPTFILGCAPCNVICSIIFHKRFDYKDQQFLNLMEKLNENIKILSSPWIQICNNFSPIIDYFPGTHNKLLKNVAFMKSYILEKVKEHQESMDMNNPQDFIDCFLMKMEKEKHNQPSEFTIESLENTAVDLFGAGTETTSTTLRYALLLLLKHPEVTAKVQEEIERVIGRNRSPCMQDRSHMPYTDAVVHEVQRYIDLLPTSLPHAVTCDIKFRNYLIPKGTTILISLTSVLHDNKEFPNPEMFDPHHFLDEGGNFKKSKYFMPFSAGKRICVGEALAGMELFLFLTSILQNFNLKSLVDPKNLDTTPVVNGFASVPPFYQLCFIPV
smiles,measurement,setting,value
C[C@@H]1CN(c2cc(-c3n[nH]c4ccc(OC5(C)CC5)cc34)ncn2)C[C@H](C)O1 [MLi-2],IC50,Cytochrome P450 2C9,> 50000 nM
same,hepatocyte CLint at 1 µM,[1],8 µL/min/1e6 cells
same,Tmax,[2],1.3 h
same,AUC(0-t) at 8 h,[3],0.66 µM·h
same,half-life,[4],1.8 h
same,"fraction unbound at 4 h, 10 µM",[5],0.012
same,solubility thermodynamic at 24 h,[6],14 to 38 µg/mL
same,solubility thermodynamic at 24 h,[7],14 to 38 µg/mL
same,IC50,Cytochrome P450 3A4 [8],> 50000 nM
same,IC50,Mus musculus [9],0.8 nM
same,solubility thermodynamic at 24 h,[10],14 to 38 µg/mL
same,Cmax,[11],480 nM
same,AUC(0-t) at 8 h,[12],1.3 µM·h
same,fIC50,Rattus norvegicus [13],0.2 nM
same,clearance,[14],153 mL/min/kg
same,MRT,[15],4 h
same,inhibition (INH),Mus musculus [16],>90%
same,hepatocyte CLint at 1 µM,[17],15 µL/min/1e6 cells
same,solubility thermodynamic at 24 h,[18],14 to 38 µg/mL
same,TDI,Cytochrome P450 3A4 [19],Not Active
same,IC50,Mus musculus [20],1.1 nM
same,bioavailability,[21],39%
same,C0,[22],1170 nM
same,solubility thermodynamic at 24 h,[23],14 to 38 µg/mL
same,inhibition (INH),Rattus norvegicus [24],>90%
same,solubility thermodynamic at 24 h,[25],14 to 38 µg/mL
same,IC50,Cytochrome P450 2D6,> 50000 nM
same,MRT,[26],1.7 h
same,fIC50,Rattus norvegicus [27],0.18 nM
